# Measurements as given in BindingDB's records for patent US11548890 (Nimbus Saturn, 2023).
# Biological target: Mitogen-activated protein kinase kinase kinase kinase 1 (Homo sapiens, UniProt Q92918)
# Test: HPK1 Biochemical Enzyme Assay
# Description: HPK1 biochemical enzyme assay: HPK1 enzyme inhibition was measured using a microfluidic mobility shift assay. […] Test compounds were titrated in ten point curves (top final assay concentration 3 μM), and preincubated with enzyme/substrate mix for 30 min prior to initiation of the reaction by addition of ATP (1 mM final concentration) and substrate (1 μM final concentration; Carna Biosciences) diluted in assay buffer supplemented by MgCl2 (final assay concentration of 5 mM). Following 60 min incubation at RT, the reaction was terminated by addition of 60 μl/well termination buffer (Carna Biosciences) and signal determination using a Caliper EZ Reader (Perkin Elmer, UK).
# Mitogen-activated protein kinase kinase kinase kinase 1, sequence (Q92918 whole entry): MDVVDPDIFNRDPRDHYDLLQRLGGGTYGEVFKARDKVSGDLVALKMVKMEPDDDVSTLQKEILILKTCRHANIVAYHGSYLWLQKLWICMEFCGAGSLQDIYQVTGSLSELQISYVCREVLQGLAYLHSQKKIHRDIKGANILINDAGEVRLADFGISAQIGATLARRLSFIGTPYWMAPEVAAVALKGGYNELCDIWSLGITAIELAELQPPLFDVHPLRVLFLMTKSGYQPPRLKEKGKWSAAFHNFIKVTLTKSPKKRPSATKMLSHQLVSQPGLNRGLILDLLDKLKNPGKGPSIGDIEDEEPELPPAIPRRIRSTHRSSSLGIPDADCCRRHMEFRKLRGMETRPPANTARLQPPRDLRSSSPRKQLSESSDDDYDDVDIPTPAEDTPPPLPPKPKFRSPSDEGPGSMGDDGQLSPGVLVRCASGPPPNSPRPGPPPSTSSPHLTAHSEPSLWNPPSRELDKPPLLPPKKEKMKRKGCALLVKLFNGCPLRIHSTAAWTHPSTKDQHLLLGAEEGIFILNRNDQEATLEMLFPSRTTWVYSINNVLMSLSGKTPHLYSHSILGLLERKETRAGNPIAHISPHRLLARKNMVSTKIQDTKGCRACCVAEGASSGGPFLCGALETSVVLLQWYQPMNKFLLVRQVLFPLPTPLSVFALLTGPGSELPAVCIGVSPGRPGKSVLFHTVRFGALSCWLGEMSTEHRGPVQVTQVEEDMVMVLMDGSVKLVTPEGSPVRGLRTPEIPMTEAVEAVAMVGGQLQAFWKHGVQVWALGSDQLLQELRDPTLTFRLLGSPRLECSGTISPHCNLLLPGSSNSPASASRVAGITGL
row,Compound,IC50
1,"CC1=CC2N=CC(c3ccc(Nc4ccc(N5CCC(O)CC5)cn4)c4c3CNC4=O)=C2C=C1 (centres undefined) [US11548890, Compound I-137]",< 100 nM
2,"COC1CCN(c2ccc(Nc3ccc(-c4cnc5c(F)cccn45)c4c3C(=O)NC4)nc2)CC1 [US11548890, Compound I-455]",in the range around 550 nM
3,"CC(C)(O)[C@H]1CN(c2ccc(Nc3cnc(-c4cnc5cnccn45)c4c3C(=O)NC4)nc2)CCO1 [US11548890, Compound I-486]",< 100 nM
4,"CN(C)Cc1nc(Nc2ccc(-c3cnc4ccccn34)c3c2C(=O)NC3)ccc1[C@@H]1CCOC1 [US11548890, Compound I-714]",< 100 nM
